From patent EP0613879A1, “PHELLODENDRINE ANALOGS AND ALLERGY TYPE IV SUPPRESSOR CONTAINING THE SAME AS ACTIVE INGREDIENT” (TSUMURA & CO., priority 1991, dated 1992)

Assays:
[1] = test system: sole reaction in sheep red blood cells (SRBC); assay: sole reaction to sheep red blood cells (SRBC), foot volume increase 24 hours after induction; format: in vivo, BALB/c mice; conditions: 3.0 x 10⁻⁴ mol/kg orally for four days after the sensitization
Experimental: The actions of the compounds of the present invention in the course of creation of the cellular immunity were studied using the sole reaction in sheep red blood cells (SRBC).
BALB/c mice (female, age: 7 weeks) were sensitized by injecting 0.2 ml of SRBC adjusted to 2.5 x 10⁵ cells/ml with a physiological saline solution into caudal vein. Four days after the sensitization, the volume of the right foot of the mice was measured. Then, 0.025 ml of SRBC from the same lot as above adjusted to 4 x 10⁹ cells/ml was subcutaneously injected into the right sole to induce a reaction. 24 hours after the reaction has been induced, the intensity of the reaction was determined by subtracting the right foot volume before the reaction from the volume after the reaction. The test compounds at a concentration of 3.0 x 10⁻⁴ mol/kg were orally administered for four days after the sensitization.

ICR mice = conditions: mouse, in vivo, po
Text: Compounds obtained in Synthetic Examples 18, 35, and 66 were orally administered to ICR mice (each dose to each group consisting of 10 mice).

[2] = against Control 3 (Purified water)
[3] = against Control 2 (5% ethanol-olive oil)

SMILES: Oc1cccc(CNCc2cccc(O)c2)c1 [Synthetic Example 7, N,N-bis(3-hydroxybenzyl)amine]
- Rate of suppression (%) [1, 2]: 54.4%

SMILES: COc1ccc(CC(=O)NCCc2ccc(O)c(OC)c2)cc1O [Synthetic Example 18, N-(4-hydroxy-3-methoxyphenetyl)-3-hydroxy-4-methoxyphenylacetamide]
- dose up to which no death was caused (ICR mice): ≤ 1,000 mg/kg

SMILES: CN(Cc1ccc(O)cc1)C(=O)c1cccc(O)c1 [Synthetic Example 25, N-(4-hydroxybenzyl)-N-methyl-3-hydroxybenzamide]
- Rate of suppression (%) [1, 3]: 26.7%

SMILES: COc1ccc(CN(C)Cc2cccc(OC)c2)cc1 [Synthetic Example 27, N-(4-methoxybenzyl)-N-methyl-3-methoxybenzylamine]
- Rate of suppression (%) [1, 2]: 32.8%

SMILES: CN(Cc1ccc(O)cc1)Cc1cccc(O)c1 [Synthetic Example 30, N-(4-hydroxybenzyl)-N-methyl-3-hydroxybenzylamine]
- Rate of suppression (%) [1, 3]: 33.2%

SMILES: COc1ccc(CN(C)Cc2ccc(O)c(OC)c2)cc1O [Synthetic Example 35, N-(4-hydroxy-3-methoxybenzyl)-N-methyl-3-hydroxy-4-methoxybenzylamine]
- dose up to which no death was caused (ICR mice): ≤ 1,000 mg/kg

SMILES: COc1ccc(CNCc2ccc(OC)cc2)cc1.O=C(O)/C=C\C(=O)O [Synthetic Example 46, N,N-bis(4-methoxybenzyl)amine maleate]
- Rate of suppression (%) ([1]; against Control 1 (0.5% gum arabic-purified water)): 38.1%

SMILES: CCN(Cc1ccc(O)cc1)Cc1cccc(O)c1 [Synthetic Example 61, N-ethyl-N-(4-hydroxybenzyl)-3-hydroxybenzylamine]
- Rate of suppression (%) [1, 3]: 21.8%

SMILES: COc1ccc(CCNCCc2ccc(O)c(OC)c2)cc1O [Synthetic Example 66, N-(4-hydroxy-3-methoxyphenetyl)-3-hydroxy-4-methoxyphenetylamine]
- dose up to which no death was caused (ICR mice): ≤ 1,000 mg/kg
